According to PubChem BioAssay (NCI):
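Interpolation was linear, between the two tested concentrations surrounding the appropriate level; five concentrations were tested over 48 hours in 96-well plates. GI50 is the concentration that inhibits growth by half. Definition used: TGI = concentration required for complete inhibition of growth.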

Assays:
Assay in all cases: growth of human tumour cells (NCI), 48 h
[1] = system: 786-0 renal
[2] = system: A498 renal
[3] = system: A549 NSCLC
[4] = system: ACHN renal
[5] = system: BT-549 breast
[6] = system: CAKI-1 renal
[7] = system: CCRF-CEM leukemia
[8] = system: COLO 205 colon
[9] = system: DU-145 prostate
[10] = system: EKVX NSCLC
[11] = system: HCC-2998 colon
[12] = system: HCT-116 colon
[13] = system: HCT-15 colon
[14] = system: HL-60(TB) leukemia
[15] = system: HOP-62 NSCLC
[16] = system: HOP-92 NSCLC
[17] = system: HS 578T breast
[18] = system: HT29 colon
[19] = system: IGROV1 ovarian
[20] = system: K-562 leukemia
[21] = system: KM12 colon
[22] = system: LOX IMVI melanoma
[23] = system: M14 melanoma
[24] = system: MALME-3M melanoma
[25] = system: MCF7 breast
[26] = system: MDA-MB-231 breast
[27] = system: MDA-MB-435
[28] = system: MOLT-4 leukemia
[29] = system: NCI-H226 lung
[30] = system: NCI-H23 lung
[31] = system: NCI-H460 lung
[32] = system: NCI-H522 lung
[33] = system: NCI/ADR-RES ovarian
[34] = system: OVCAR-3 ovarian
[35] = system: OVCAR-4 ovarian
[36] = system: OVCAR-5 ovarian
[37] = system: OVCAR-8 ovarian
[38] = system: PC-3 prostate
[39] = system: RPMI-8226 leukemia
[40] = system: RXF 393 renal
[41] = system: SF-268 CNS
[42] = system: SF-295 CNS
[43] = system: SF-539 CNS
[44] = system: SK-MEL-2 melanoma
[45] = system: SK-MEL-28 melanoma
[46] = system: SK-MEL-5 melanoma
[47] = system: SK-OV-3 ovarian
[48] = system: SN12C renal
[49] = system: SNB-19 CNS
[50] = system: SNB-75 CNS
[51] = system: SR leukemia
[52] = system: SW-620 colon
[53] = system: T-47D breast
[54] = system: TK-10 renal
[55] = system: U251 CNS
[56] = system: UACC-257 melanoma
[57] = system: UACC-62 melanoma
[58] = system: UO-31 renal

## O=C1/C(=C/c2ccccc2[N+](=O)[O-])COc2ccc(O)cc21
[1]
  GI50: 1720 nM
  TGI: 10000 nM
[2]
  GI50: 1650 nM
  TGI: 7240 nM
[3]
  GI50: 4490 nM
  TGI: 19400 nM
[4]
  GI50: 740 nM
  TGI: 2130 nM
[5]
  GI50: 2300 nM
  TGI: 5230 nM
[6]
  GI50: 1030 nM
  TGI: 2910 nM
[7]
  GI50: 326 nM
  TGI: 2520 nM
[8]
  GI50: 1140 nM
  TGI: 2890 nM
[9]
  GI50: 1720 nM
  TGI: 4290 nM
[10]
  GI50: 3220 nM
  TGI: 14500 nM
[11]
  GI50: 1510 nM
  TGI: 2940 nM
[12]
  GI50: 352 nM
  TGI: 1570 nM
[13]
  GI50: 417 nM
  TGI: 2060 nM
[14]
  GI50: 1760 nM
  TGI: 5680 nM
[15]
  GI50: 5210 nM
  TGI: 19300 nM
[16]
  GI50: 2750 nM
  TGI: 12500 nM
[17]
  GI50: 2390 nM
  TGI: 41600 nM
[18]
  GI50: 397 nM
  TGI: 3070 nM
[19]
  GI50: 529 nM
  TGI: 2080 nM
[20]
  GI50: 528 nM
  TGI: > 100000 nM
[21]
  GI50: 1850 nM
  TGI: 4310 nM
[22]
  GI50: 1050 nM
  TGI: 2270 nM
[23]
  GI50: 1900 nM
  TGI: 4850 nM
[24]
  GI50: 1650 nM
  TGI: 4620 nM
[25]
  GI50: 697 nM
  TGI: 8750 nM
[26]
  GI50: 1770 nM
  TGI: 3690 nM
[27]
  GI50: 2180 nM
  TGI: 5960 nM
[28]
  GI50: 2270 nM
  TGI: 8230 nM
[29]
  GI50: 2400 nM
  TGI: 10900 nM
[30]
  GI50: 1590 nM
  TGI: 4410 nM
[31]
  GI50: 2100 nM
  TGI: 5040 nM
[32]
  GI50: 684 nM
  TGI: 3650 nM
[33]
  GI50: 1990 nM
  TGI: 8090 nM
[34]
  GI50: 523 nM
  TGI: 1760 nM
[35]
  GI50: 1900 nM
  TGI: 8630 nM
[36]
  GI50: 1730 nM
  TGI: 3640 nM
[37]
  GI50: 2300 nM
  TGI: 47800 nM
[38]
  GI50: 2010 nM
  TGI: 10800 nM
[39]
  GI50: 612 nM
  TGI: 5000 nM
[40]
  GI50: 1230 nM
  TGI: 3020 nM
[41]
  GI50: 2400 nM
  TGI: 7970 nM
[42]
  GI50: 7130 nM
  TGI: 25600 nM
[43]
  GI50: 1710 nM
  TGI: 4270 nM
[44]
  GI50: 2980 nM
  TGI: 11000 nM
[45]
  GI50: 1550 nM
  TGI: 3140 nM
[46]
  GI50: 1760 nM
  TGI: 4070 nM
[47]
  GI50: 5250 nM
  TGI: 17600 nM
[48]
  GI50: 1600 nM
  TGI: 5550 nM
[49]
  GI50: 4150 nM
  TGI: 16600 nM
[50]
  GI50: 2760 nM
  TGI: 19600 nM
[51]
  GI50: 366 nM
  TGI: > 100000 nM
[52]
  GI50: 448 nM
  TGI: 1810 nM
[53]
  GI50: 2360 nM
  TGI: 17600 nM
[54]
  GI50: 3440 nM
  TGI: 13900 nM
[55]
  GI50: 2410 nM
  TGI: 8740 nM
[56]
  GI50: 2160 nM
  TGI: 7130 nM
[57]
  GI50: 1520 nM
  TGI: 3080 nM
[58]
  GI50: 1020 nM
  TGI: 2630 nM
